From patent US11400160B2, “Multifunctional conjugates” (E.P.O.S IASIS Research and Development Limited, priority 2017, dated 2022)
Entries after “also recorded” stand apart in the source; their conditions may differ. Read-outs that look alike come from different tables or passages of the source.

Key:
[1] = test system: mature osteoclasts isolated from human Giant Cell Tumours (GCT) of bone; assay: Bone resorption by mature osteoclasts from Giant Cell Tumours of bone; type: cell-based; details: osteoclasts from human GCT of bone on whale dentine, 5 days
Text: Human peripheral blood mononuclear cells (PBMCs) and the RAW264.7 murine monocytic cell line were differentiated into osteoclast-like cells in the presence of RANKL plus M-CSF and have been used as model systems of osteoclastogenesis. Osteoclast-like cells, from Giant Cell Tumours (GCT) of bone specimens from three independent donors were used to investigate the effect of compounds of the invention on the bone resorbing activity of mature osteoclasts.
To determine the effect of compounds of the invention on bone resorbing activity of mature osteoclast, cultured cells isolated from primary human Giant Cell Tumours of bone specimens were used. These cells were plated on whale dentine slices in 96-well plates at a density of 1×10^5/well and treated for 5 days with increasing concentrations of compounds of the invention. Medium and treatments were replaced on day three and pit formation determined on day 5.
Whale dentine slices will be washed in extran, rinsed with distilled water, washed in 70% ethanol and dried overnight. […] Images will be analysed using ImageQuant software and the area of resorption determined for each dentine slice (quadruplicate dentine slices for each treatment). Results are expected to be average resorption area +/− standard errors of the mean (SEM) and the significant differences between treatments will be determined using Students t-tests (2-tailed, unpaired).

[2] = test system: MCF-7 cells; assay: Cell viability, crystal violet colorimetric assay; type: cell-based; details: 72 hrs; for IC50: tested at 0.02-0.1 mM, unstarred values
Experimental: (§1) Immortalised osteolytic metastatic breast cancer cell lines, a) hormone-dependent MCF-7 and b) hormone refractory MDA-MB231, together with the daughter line MDA-MB231TXSA were incubated with 5 gradual concentrations of compounds of the invention as described below. Cell viability was assessed with the crystal violet colorimetric assay and IC50s were evaluated.
(§2) Medium was removed from cell cultures and cells were fixed with 4% v/v formaldehyde for 5 mins at room temperature. Formalin was then removed and CV added for 10 mins at room temperature followed by several washes with dsH2O. Samples were allowed to dry overnight. The following day, 10% acetic acid was added for 15 mins and optical density at 620 nm was measured. Optical densities versus compound concentrations were plotted in graphs and IC50s estimated by linear regression analysis using the WorkOut (VictorX4) software.
MCF-7, MDA-MB231 and MDA-MB231TXSA cells were seeded in 96-well-plates and allowed to attach overnight. […]
(§3) Cells were cultured in the presence of the compounds for 72 hrs and viability was assessed on day 3 by crystal violet assay. The cell lines were selected for their high bone metastatic potential. The fluorescently transfected line MB231TXSA, derived from line MB231 is also used in animal studies (WP7).

[3] = test system: primary human osteoblast cultures; assay: Osteoblast mineralization (alizarin red, calcium in cell layer); type: cell-based; details: up to 15 days, osteo-inductive conditions; compared to free BP; alizarin red and calcium; FIG. 6
Experimental: The effect of free γToc and BP-γToc treatment on osteoblast function, using mineralized bone nodule-forming primary human osteoblast cultures was investigated.
Osteoblasts harvested from human donors at the time of joint replacement surgery were cultured up to 15 days in serum-containing medium under osteo-inductive conditions.

[4] = test system: MDA-MB231 cells; assay: Cell viability, crystal violet colorimetric assay; type: cell-based; details: 72 hrs; for IC50: tested at 0.02-0.1 mM
Experimental: as §1, §2
(§4) MCF-7, MDA-MB231 and MDA-MB231TXSA cells were seeded in 96-well-plates and allowed to attach overnight. The following day media were replaced with fresh media containing the following compounds: Both free tetraethyl methylbisphosphonate (bpp(OEt)) and bpp(OEt) in 1:1 combination with the free chromanol and the biphosphonate conjugates were tested at 5 gradual concentrations of: 0.02, 0.04, 0.06, 0.08 and 0.1 mM.
as §3

[5] = test system: MDA-MB231TXSA cells; assay: Cell viability, crystal violet colorimetric assay; type: cell-based; details: 72 hrs; for IC50: tested at 0.02-0.1 mM, read-out: IC50 values MB231-TXSA
Experimental: as §1, §2, §4, §3

[6] = Binding to pre-loaded bone slices / hydroxyapatite after washing; details: pre-loaded whale dentine or osteologic slides, unbound drug washed away
Text: In a separate experiment, pre-loaded bone slices (whale dentine) or commercial forms of hydroxyapatite (osteologic slides) with either free γ-tocopherol (γToc) or γ-tocopherol-bpp(OEt) (BP-γToc) and then washed away unbound drug.

[7] = test system: mouse neonatal calvariae; assay: Calvarial organotypic bone growth assay (ex vivo); parameters: species or system mouse (Balb/c); details: ex vivo culture 10 days, FIG. 7; for bone formation in calvariae: above free BP or untreated
Experimental: Anexvivo model of cultured mouse neonatal calvariae to assess bone anabolic activity of each compound was performed as previously described by Garrett, I et al., (Methods Mol Med, 2003. 80: p. 183-198).
Briefly fifteen newborn, 4 day old Balb/c pubs were used for these experiments. Calvarial bones were dissected under sterile conditions and placed on sterile grids in 12 well plates containing culture media. Calvarial bones were cultured for 10 days in the presence of free γToc, BP-γToc or free BP. Bone morphogenetic protein 2 (BMP-2) was used as a positive control, with known bone anabolic activity in this assay.
Treatments were carried out in quadruplicate as shown below. Calvarial bones were embedded in paraffin wax and sections were stained with haematoxylin and eosin stain (H&E) and analysed using the nanozoom image analysis software.
• Untreated • Bpp(OEt) (BP) (15 μM) • BP (20 μM) • γ-Tocotrienol (15 μM) • γ-Tocotrienol (20 μM) • γ-Tocotrienol (100 μM) • BP-γ-tocotrienol conjugate (15 μM) • BP-γTocotrienol conjugate (20 μM) • BP-γ-Tocotrienol conjugate (100 μM) • BMP-2 (50 ng/ml)
New bone formation in treated calvariae was assessed by histological assessment of stained sections.

With CCOP(=O)(OCC)C(CCC(=O)Oc1cc2c(c(C)c1C)OC(C)(CCCC(C)CCCC(C)CCCC(C)C)CC2)P(=O)(OCC)OCC (stereo not drawn) [γ-toc-bpp(OEt), γ-tocopheryl bisphosphonic ester] the “bone resorption by already mature osteoclasts” value [1] was “inhibited bone resorption”, the IC50 ([2]; Exp.1) was 114 µM and the IC50 ([2]; Exp.2) was 81.5 µM. The “matrix-containing mineralized nodules in osteoblast cultures” value [3] was “progressively increased matrix-containing mineralized nodules”, the IC50 ([4]; Exp.1, unstarred values) was 124 µM and the IC50 ([4]; Exp.2) was 49.7 µM. For the same molecule, the IC50 ([5]; Exp.1) was 79.3 µM, the EC50 ([5]; Exp.2, * denotes EC50 value, read-out: EC50 value (starred) MB231-TXSA) was 189 µM and the “binding to bone substrate / bone mineral” value [6] was “selectively bound the substrate”. For the same molecule, the “bone formation compared with free γToc and BMP-2 positive control” value ([7]; listed as BP-γToc) was “far superior to the free γToc; also recorded: even greater than that seen with the BMP-2 positive control” and the “bone formation in calvariae” value [7] was “significantly increased bone formation”.

With Cc1c(O)cc2c(c1C)O[C@](C)(CCC[C@H](C)CCC[C@H](C)CCCC(C)C)CC2 [γ-toc, γ-tocopherol, reference compound] the “bone resorption by already mature osteoclasts” value [1] was “inhibited bone resorption”, the EC50 ([2]; Exp.1, * denotes EC50 value, read-out: EC50 value (starred) MCF-7) was 439 µM and the IC50 ([2]; Exp.2) was 128 µM. The “matrix-containing mineralized nodules in osteoblast cultures” value [3] was “progressively increased matrix-containing mineralized nodules”, the EC50 ([4]; Exp.1, * denotes EC50 value, read-out: EC50 value (starred) MB231) was 312 µM and the IC50 ([4]; Exp.2) was 55.7 µM. The IC50 ([5]; Exp.1) was 97.4 µM, the IC50 ([5]; Exp.2, unstarred values) was 233 µM and the “binding to bone substrate / bone mineral” value [6] was “not”. For the same molecule, the “bone formation in calvariae” value [7] was “significantly increased bone formation”.
